Results taken from patent publication US8497385B2, “Bryostatin analogues, synthetic methods and uses” (The Board of Trustees of the Leland Stanford Junior …, priority 2007, dated 2013).

Key:
Format in all cases: cell-based, human
CCRF-CEM = assay: NCI growth inhibition, CCRF-CEM (Leukemia); settings: Leukemia
HL-60(TB) = system: HL-60(TB)
K-562 = assay: NCI growth inhibition, K-562 (Leukemia); settings: K-562, Leukemia
MOLT-4 = assay: NCI growth inhibition, MOLT-4 (Leukemia); settings: MOLT-4, Leukemia
RPMI-8226 = assay: NCI growth inhibition, RPMI-8226 (Leukemia); settings: RPMI-8226, Leukemia
SR = assay: NCI growth inhibition, SR (Leukemia); settings: Leukemia
A549/ATCC = assay: NCI growth inhibition, A549/ATCC (NSC Lung); settings: NSC Lung
EKVX = assay: NCI growth inhibition, EKVX (NSC Lung); settings: NSC Lung
HOP-62 = assay: NCI growth inhibition, HOP-62 (NSC Lung)
HOP-92 = assay: NCI growth inhibition, HOP-92 (NSC Lung); settings: HOP-92, NSC Lung
NCI-H226 = assay: NCI growth inhibition, NCI-H226 (NSC Lung)
NCI-H23 = assay: NCI growth inhibition, NCI-H23 (NSC Lung)
NCI-H322M = assay: NCI growth inhibition, NCI-H322M (NSC Lung); settings: NSC Lung
NCI-H460 = assay: NCI growth inhibition, NCI-H460 (NSC Lung); settings: NCI-H460, NSC Lung
NCI-H522 = assay: NCI growth inhibition, NCI-H522 (NSC Lung)
COLO 205 = assay: NCI growth inhibition, COLO 205 (Colon); settings: COLO 205, Colon
HCC-2998 = assay: NCI growth inhibition, HCC-2998 (Colon); settings: HCC-2998, Colon
HCT-116 = assay: NCI growth inhibition, HCT-116 (Colon); settings: HCT-116, Colon
HCT-15 = assay: NCI growth inhibition, HCT-15 (Colon)
HT29 = assay: NCI growth inhibition, HT29 (Colon); settings: HT29, Colon
KM12 = assay: NCI growth inhibition, KM12 (Colon); settings: KM12, Colon
SW-620 = assay: NCI growth inhibition, SW-620 (Colon); settings: SW-620, Colon
SF-268 = assay: NCI growth inhibition, SF-268 (CNS); settings: SF-268, CNS
SF-295 = assay: NCI growth inhibition, SF-295 (CNS); settings: SF-295, CNS
SF-539 = assay: NCI growth inhibition, SF-539 (CNS); settings: SF-539, CNS
SNB-19 = assay: NCI growth inhibition, SNB-19 (CNS); settings: SNB-19, CNS
SNB-75 = assay: NCI growth inhibition, SNB-75 (CNS); settings: SNB-75, CNS
U251 = assay: NCI growth inhibition, U251 (CNS); settings: U251, CNS
PC-3 = assay: NCI growth inhibition, PC-3 (Prostate); settings: PC-3, Prostate
DU-145 = assay: NCI growth inhibition, DU-145 (Prostate); settings: DU-145, Prostate
LOX IMVI = assay: NCI growth inhibition, LOX IMVI (Melanoma); settings: Melanoma
MALME-3M = assay: NCI growth inhibition, MALME-3M (Melanoma)
MI4 = assay: NCI growth inhibition, MI4 (Melanoma); settings: MI4, Melanoma
SK-MEL-2 = assay: NCI growth inhibition, SK-MEL-2 (Melanoma); settings: SK-MEL-2, Melanoma
SK-MEL-28 = assay: NCI growth inhibition, SK-MEL-28 (Melanoma); settings: SK-MEL-28, Melanoma
SK-MEL-5 = assay: NCI growth inhibition, SK-MEL-5 (Melanoma); settings: SK-MEL-5, Melanoma
UACC-257 = assay: NCI growth inhibition, UACC-257 (Melanoma); settings: UACC-257, Melanoma
UACC-62 = assay: NCI growth inhibition, UACC-62 (Melanoma); settings: UACC-62, Melanoma
IGROVI = assay: NCI growth inhibition, IGROVI (Ovarian); settings: Ovarian
OVCAR-3 = assay: NCI growth inhibition, OVCAR-3 (Ovarian); settings: OVCAR-3, Ovarian
OVCAR-4 = assay: NCI growth inhibition, OVCAR-4 (Ovarian); settings: OVCAR-4, Ovarian
OVCAR-5 = assay: NCI growth inhibition, OVCAR-5 (Ovarian); settings: OVCAR-5, Ovarian
OVCAR-8 = assay: NCI growth inhibition, OVCAR-8 (Ovarian); settings: OVCAR-8, Ovarian
SK-OV-3 = assay: NCI growth inhibition, SK-OV-3 (Ovarian); settings: SK-OV-3, Ovarian
786-0 = assay: NCI growth inhibition, 786-0 (Renal); settings: 786-0, Renal
A498 = assay: NCI growth inhibition, A498 (Renal); settings: A498, Renal
ACHN = assay: NCI growth inhibition, ACHN (Renal); settings: Renal
CAKI-1 = assay: NCI growth inhibition, CAKI-1 (Renal); settings: CAKI-1, Renal
RXF-393 = assay: NCI growth inhibition, RXF-393 (Renal)
SN12C = assay: NCI growth inhibition, SN12C (Renal); settings: Renal
TK-10 = assay: NCI growth inhibition, TK-10 (Renal); settings: TK-10, Renal
UO-31 = assay: NCI growth inhibition, UO-31 (Renal); settings: UO-31, Renal
MCF7 = assay: NCI growth inhibition, MCF7 (Breast); settings: MCF7, Breast
NCI/ADR-RES = assay: NCI growth inhibition, NCI/ADR-RES (Breast)
MDA-MB-231/ATCC = assay: NCI growth inhibition, MDA-MB-231/ATCC (Breast); settings: Breast
MDA-MB-435 = assay: NCI growth inhibition, MDA-MB-435 (Breast); settings: MDA-MB-435, Breast
MDA-N = assay: NCI growth inhibition, MDA-N (Breast)
BT-549 = assay: NCI growth inhibition, BT-549 (Breast); settings: BT-549, Breast
T-47D = assay: NCI growth inhibition, T-47D (Breast); settings: Breast
HS 578T = assay: NCI growth inhibition, HS 578T (Breast); settings: Breast

In the case of `CCC/C=C/C=C/C(=O)O[C@H]1/C(=C/C(=O)OC)C[C@H]2C[C@H]([C@@H](C)O)OC(=O)C[C@H](O)C[C@@H]3C[C@H](OC(C)=O)C(C)(C)[C@](O)(C[C@@H]4C/C(=C/C(=O)OC)C[C@H](/C=C/C(C)(C)[C@]1(O)O2)O4)O3` [Bryo-1, Bryostatin-1, reference compound], the GI50 (CCRF-CEM) is reported as −5.30 log of molar concentration, the GI50 (HL-60(TB)) is reported as −5.70 log of molar concentration and the GI50 (K-562) is reported as −5.40 log of molar concentration. For the same compound, the GI50 (MOLT-4) was −5.50 log of molar concentration, the GI50 (RPMI-8226) was >−5 log of molar concentration and the GI50 (SR) was >−5 log of molar concentration. The GI50 (A549/ATCC) was −5.20 log of molar concentration, the GI50 (EKVX) was −5.30 log of molar concentration and the GI50 (HOP-62) was >−5 log of molar concentration. For the same compound, the GI50 (HOP-92) was −5.30 log of molar concentration, the GI50 (NCI-H226) was >−5 log of molar concentration and the GI50 (NCI-H23) was >−5 log of molar concentration. For the same compound, the GI50 (NCI-H322M) was −6.00 log of molar concentration, the GI50 (NCI-H460) was −5.60 log of molar concentration and the GI50 (NCI-H522) was >−5 log of molar concentration. The GI50 (COLO 205) was −5.40 log of molar concentration, the GI50 (HCC-2998) was −5.30 log of molar concentration and the GI50 (HCT-116) was −5.30 log of molar concentration. For the same compound, the GI50 (HCT-15) was >−5 log of molar concentration, the GI50 (HT29) was −5.30 log of molar concentration and the GI50 (KM12) was −5.20 log of molar concentration. The GI50 (SW-620) was −5.50 log of molar concentration, the GI50 (SF-268) was −5.10 log of molar concentration and the GI50 (SF-295) was −5.20 log of molar concentration. The GI50 (SF-539) was >−5 log of molar concentration, the GI50 (SNB-19) was >−5 log of molar concentration and the GI50 (SNB-75) was −5.50 log of molar concentration. For the same compound, the GI50 (U251) was −5.10 log of molar concentration, the GI50 (PC-3) was −5.30 log of molar concentration and the GI50 (DU-145) was >−5 log of molar concentration. The GI50 (LOX IMVI) was −5.10 log of molar concentration, the GI50 (MALME-3M) was −5.20 log of molar concentration and the GI50 (MI4) was >−5 log of molar concentration. The GI50 (SK-MEL-2) was −5.20 log of molar concentration, the GI50 (SK-MEL-28) was −5.10 log of molar concentration and the GI50 (SK-MEL-5) was −5.70 log of molar concentration. For the same compound, the GI50 (UACC-257) was −5.10 log of molar concentration, the GI50 (UACC-62) was −5.30 log of molar concentration and the GI50 (IGROVI) was −5.30 log of molar concentration. The GI50 (OVCAR-3) was −5.10 log of molar concentration, the GI50 (OVCAR-4) was −5.50 log of molar concentration and the GI50 (OVCAR-5) was >−5 log of molar concentration. For the same compound, the GI50 (OVCAR-8) was −5.10 log of molar concentration, the GI50 (SK-OV-3) was −5.10 log of molar concentration and the GI50 (786-0) was −5.20 log of molar concentration. For the same compound, the GI50 (A498) was >−5 log of molar concentration, the GI50 (ACHN) was −5.50 log of molar concentration and the GI50 (CAKI-1) was −5.40 log of molar concentration. The GI50 (RXF-393) was −5.30 log of molar concentration, the GI50 (SN12C) was −5.10 log of molar concentration and the GI50 (TK-10) was >−5 log of molar concentration. The GI50 (UO-31) was −5.60 log of molar concentration, the GI50 (MCF7) was −5.20 log of molar concentration and the GI50 (NCI/ADR-RES) was >−5 log of molar concentration. For the same compound, the GI50 (MDA-MB-231/ATCC) was −5.20 log of molar concentration, the GI50 (MDA-MB-435) was −5.10 log of molar concentration and the GI50 (MDA-N) was −5.10 log of molar concentration. The GI50 (BT-549) was −5.10 log of molar concentration, the GI50 (T-47D) was −5.20 log of molar concentration and the GI50 (HS 578T) was −5.2 log of molar concentration.
